Experimental data taken from patent publication US20130217702A1 (Richter Gedeon Nyrt., priority 2010, published 2013).

Experiments:
[1] = target: T1, recombinant human B1 receptors (Homo sapiens, UniProt P46663); assay: Functional assay: antagonist potency by cytosolic calcium measurement (plate reader fluorimeter) in CHO-B1 cells, agonist LysDABK; format: cell-based; details: CHO-B1 cells, inhibition of LysDABK (EC80)-evoked [Ca2+]i elevation; read-out: B1 func.
T1 construct: host or cells: CHO (CHO-B1)
T1 sequence (P46663 1-353): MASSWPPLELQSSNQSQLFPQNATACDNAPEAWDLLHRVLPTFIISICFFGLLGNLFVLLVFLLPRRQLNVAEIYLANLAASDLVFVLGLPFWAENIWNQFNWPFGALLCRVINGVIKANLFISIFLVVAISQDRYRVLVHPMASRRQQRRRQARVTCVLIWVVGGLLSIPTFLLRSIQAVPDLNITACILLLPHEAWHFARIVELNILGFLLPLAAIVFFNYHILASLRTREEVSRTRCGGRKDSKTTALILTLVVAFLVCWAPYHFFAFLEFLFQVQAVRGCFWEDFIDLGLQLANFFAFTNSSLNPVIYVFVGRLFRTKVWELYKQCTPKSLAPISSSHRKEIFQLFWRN
Method: Assessment of Antagonist Potency at B1 Receptors In Vitro by Measurement of Cytosolic Calcium Ion Concentration with a Plate Reader Fluorimeter in Cells Expressing Recombinant Human B1 Receptors
Chinese hamster ovary (CHO) cells stably expressing recombinant human B1 (CHO-B1, Euroscreen) receptors were cultured in Dulbecco's Modified Eagle's Medium (DMEM) containing 10% Fetal Calf Serum (FCS), 100 U/ml penicillin, 0.1 mg/ml streptomycin, 0.25 μg/ml amphotericin B, 1% Minimum Essential Medium Eagle (MEM), non essential amino acid solution, 600 μg/ml G418. Cells were kept at 37° C. in a humidified incubator in an atmosphere of 5% CO2/95% air and were passaged 1:4 three times a week. Cells were plated at 1.5−2.5×10^4 cell/well on standard 96-well microplates, measurements of cytosolic calcium ion concentration ([Ca^2+]i) were carried out 1-2 days after cell plating.
Measurements of [Ca^2+]i were carried out on CHO-B1 cells stably expressing human B1 receptors, respectively. Cells were grown in standard 96-well microplates and before the measurement were loaded with a fluorescent Ca^2+-sensitive dye, fluo-4/AM (2 μM): after removing the culture medium the dye was added to the cells (dissolved in assay buffer: 145 mM NaCl, 5 mM KCl, 2 mM MgCl2, 2 mM CaCl2, 10 mM HEPES, 20 mM D-glucose, 2 mM probenecid, 100 μl/well) and cells were incubated at 37° C. in a humidified incubator in an atmosphere of 5% CO2/95% air for 40-120 min. To stop dye loading cells were washed twice with assay buffer. After washing, various concentrations of the test compounds (diluted in extracellular medium from a DMSO stock solution, final DMSO concentration was <0.1%) or buffer were added to each well depending on the experimental setup. After incubation at 37° C. for 20-25 min. baseline and agonist-evoked changes of [Ca^2+]; were measured column by column with a plate reader fluorimeter (Fluoroskan Ascent, Labsystems). Excitation and detection of emission was carried out from the bottom of the plate. Filters used for Fluo-4: excitation filter 485 nm, emission filter 538 nm. The whole measurement process was performed at 37° C. and was controlled by custom software. Inhibitory potency of the test compounds was assessed by measuring the reduction in the agonist-evoked [Ca^2+]i-elevation in the presence of different concentrations of the compounds. The agonist was LysDABK for CHO-B1 cells. Agonist was applied at an EC80 concentration; the EC80-values were derived from daily determined dose-response curves. Fluorescence data were expressed as ΔF/F (fluorescence change normalized to baseline). All treatments on a single plate were measured in multiple wells. Data from all wells with the same treatment were averaged and the average values were used for analysis. Inhibitory potency of a compound at a single concentration point was expressed as percent inhibition of the control agonist response. Sigmoidal concentration-inhibition curves were fitted to the data (derived from at least three independent experiments) and IC50-values were determined as the concentration that produces half of the maximal inhibition caused by the compound.

[2] = target: T2, human recombinant bradykinin B1 receptor (Homo sapiens, UniProt P46663); assay: Human recombinant bradykinin B1 receptor competitive radioligand binding; details: hB1 expressed in CHO cells, [3H]-[Des-Arg10] Kallidin radioligand; read-out: B1 binding
T2 construct: host or cells: CHO cells, clone hB1-A5
T2 sequence (P46663 1-353): T1 sequence (P46663 1-353)
Method: Assessment of Ligand Binding Affinity to B1 and B2 Receptors In Vitro by Competitive Radioligand Binding Assay
Binding assays were carried out on human recombinant bradykinin) receptors (expressed in CHO cells, hB1-A5) according to the Euroscreen Technical Data Sheet (Cat.No.:ES-091). 20 μg protein/tube was incubated with [3,4-prolyl-3,4-^3H(N)]-[Des-Arg^10] Kallidin as radioligand. Non specific binding was determined in the presence of 10 μM Lys-des-Arg^9-Bradykinin. The final incubation volume was 250 μl. Samples were incubated for 15 min. at 25° C. then were rapidly vacuum filtered through GF/B filters presoaked for at least 1 h in 0.5% PEI. Radioactivity was determined by liquid scintillation spectroscopy.
The ligand displacement by the compounds was determined using a minimum of seven concentrations in triplicate, and experiments were repeated at least two times. The specific radioligand binding is defined as the difference between total binding and the non-specific binding determined in the presence of an excess of unlabelled ligand. Results are expressed as a percent inhibition of specific binding obtained in the presence of RGH-478 or reference drugs. IC50 values (i.e. concentration of compound giving 50% inhibition of specific binding) were calculated from concentration-displacement curves by sigmoidal fitting using GraphPad Prism Software 4.0. Ki values (i.e. inhibition constants) were calculated using the Cheng-Prusoff equation. KD was determined from the Scatchard plot. (Editor-in-chief: Enna, S. J. and Williams, M. Current protocols in pharmacology vol. 1. John Wiley & sons Inc., 1998)

| Structure (SMILES) | IC50 [1] | Ki [2] |
| --- | --- | --- |
| COc1cc(C(=O)NC2(C(=O)NCc3ccc(-n4c(-c5nnn(C)n5)c(Cl)c5cc(Cl)ccc54)cc3)CC2)on1 [Example 18, 3-Methoxy-isoxazole-5-carboxylic acid (1-{4-[3,5-dichloro-2-(2-methyl-2H-tetrazol-5-yl)-indol-1-yl]-benzylcarbamoyl}-cyclopropyl)-amide] | < 20 nM | < 20 nM |
| Cn1nnc(-c2c(Cl)c3cc(F)ccc3n2-c2ccc(CNC(=O)C3(NC(=O)C(F)(F)F)CC3)c(F)c2)n1 [Example 19] | < 20 nM | < 20 nM |
| COc1cc(C(=O)NC2(C(=O)NCc3ccc(-n4c(-c5nnn(C)n5)c(Cl)c5cc(F)ccc54)cc3F)CC2)on1 [Example 20, 3-Methoxy-isoxazole-5-carboxylic acid (1-{4-[3-chloro-5-fluoro-2-(2-methyl-2H-tetrazol-5-yl)-indol-1-yl]-2-fluoro-benzylcarbamoyl}-cyclopropyl)-amide] | < 20 nM | < 20 nM |
| COc1cc(C(=O)NC2(C(=O)NCc3ccc(-n4c(-c5noc(C)n5)c(C#N)c5ccccc54)cc3)CC2)on1 [Example 21, 3-Methoxy-isoxazole-5-carboxylic acid (1-{4-[3-cyano-2-(5-methyl-[1,2,4]oxadiazol-3-yl)-indol-1-yl]-benzylcarbamoyl}-cyclopropyl)-amide] | < 20 nM | < 20 nM |
| Cn1nnc(-c2c(Cl)c3cc(Cl)ccc3n2-c2ccc(CNC(=O)C3(NC(=O)C(F)(F)F)CC3)c(F)c2)n1 [Example 22, 1-(2,2,2-Trifluoro-acetylamino)-cyclopropanecarboxylic acid 4-[3,5-dichloro-2-(2-methyl-2H-tetrazol-5-yl)-indol-1-yl]-2-fluoro-benzylamide] | < 20 nM | < 20 nM |
| Cc1nc(-c2c(Cl)c3ccccc3n2-c2ccc(CNC(=O)C3(NC(=O)C(F)(F)F)CC3)cc2)no1 [Example 23, 1-(2,2,2-Trifluoro-acetylamino)-cyclopropanecarboxylic acid 4-[3-chloro-2-(5-methyl-[1,2,4]oxadiazol-3-yl)-indol-1-yl]-benzylamide] | < 20 nM | < 20 nM |
| Cn1nnc(-c2c(Cl)c3ccccc3n2-c2ccc(CNC(=O)C3(NC(=O)c4cc(C5CC5)on4)CC3)cc2)n1 [Example 24, 5-Cyclopropyl-isoxazole-3-carboxylic acid (1-{4-[3-chloro-2-(2-methyl-2H-tetrazol-5-yl)-indol-1-yl]-benzylcarbamoyl}-cyclopropyl)-amide] | < 20 nM | < 20 nM |
| Cc1cnc(C(=O)NC2(C(=O)NCc3ccc(-n4c(-c5nnn(C)n5)c(Cl)c5ccccc54)cc3)CC2)cn1 [Example 25, 5-Methyl-pyrazine-2-carboxylic acid (1-{4-[3-chloro-2-(2-methyl-2H-tetrazol-5-yl)-indol-1-yl]-benzylcarbamoyl}-cyclopropyl)-amide] | 20 to 100 nM | < 20 nM |
| Cc1cc(C(=O)NC2(C(=O)NCc3ccc(-n4c(-c5nnn(C)n5)c(Cl)c5ccccc54)cc3)CC2)no1 [Example 26, 5-Methyl-isoxazole-3-carboxylic acid (1-{4-[3-chloro-2-(2-methyl-2H-tetrazol-5-yl)-indol-1-yl]-benzylcarbamoyl}-cyclopropyl)-amide] | < 20 nM | < 20 nM |
| Cn1nnc(-c2c(Cl)c3ccccc3n2-c2ccc(CNC(=O)C3(NC(=O)c4cccnc4Cl)CC3)cc2)n1 [Example 27, 2-Chloro-N-(1-{4-[3-chloro-2-(2-methyl-2H-tetrazol-5-yl)-indol-1-yl]-benzylcarbamoyl}-cyclopropyl)-nicotinamide] | < 20 nM | < 20 nM |
| Cn1nnc(-c2c(Cl)c3ccccc3n2-c2ccc(CNC(=O)C3(NC(=O)c4ccnc(F)c4)CC3)cc2)n1 [Example 28, N-(1-{4-[3-chloro-2-(2-methyl-2H-tetrazol-5-yl)-indol-1-yl]-benzylcarbamoyl}-cyclopropyl)-2-fluoro-isonicotinamide] | < 20 nM | < 20 nM |
| Cn1nnc(-c2c(Cl)c3ccccc3n2-c2ccc(CNC(=O)C3(NC(=O)CC(F)(F)F)CC3)cc2)n1 [Example 29, 1-(3,3,3,-Trifluoro-propionylamino)-cyclopropanecarboxylic acid 4-[3-chloro-2-(2-methyl-2H-tetrazol-5-yl)-indol-1-yl]-benzylamide] | < 20 nM | < 20 nM |
| Cn1nnc(-c2c(Cl)c3ccccc3n2-c2ccc(CNC(=O)C3(NC(=O)c4cncc(C(F)(F)F)c4)CC3)cc2)n1 [Example 30, N-(1-{4-[3-chloro-2-(2-methyl-2H-tetrazol-5-yl)-indol-1-yl]-benzylcarbamoyl}-cyclopropyl)-5-trifluoromethyl-nicotinamide] | < 20 nM | < 20 nM |
| Cn1nnc(-c2c(Cl)c3ccccc3n2-c2ccc(CNC(=O)C3(NC(=O)c4cccc(F)c4)CC3)cc2)n1 [Example 31, N-(1-{4-[3-chloro-2-(2-methyl-2H-tetrazol-5-yl)-indol-1-yl]-benzylcarbamoyl}-cyclopropyl)-3-fluoro-benzamide] | < 20 nM | < 20 nM |
| CNC(=O)c1c(Cl)c2ccccc2n1-c1ccc(C(C)NC(=O)C2(NC(=O)C(F)(F)F)CC2)cc1 (stereo not shown) [Example 32, 3-Chloro-1-[4-(1-{[1-(2,2,2-trifluoro-acetylamino)-cyclopropanecarbonyl]-amino}-ethyl)-phenyl]-1H-indole-2-carboxylic acid methylamide] | < 20 nM | < 20 nM |
| CC(NC(=O)C1(NC(=O)C(F)(F)F)CC1)c1ccc(-n2c(C(=O)N3CCCC3)c(Cl)c3ccccc32)cc1 (stereo not shown) [Example 33, 1-(2,2,2-Trifluoro-acetylamino)-cyclopropanecarboxylic acid (1-{4-[3-chloro-2-(pyrrolidine-1-carbonyl)-indol-1-yl]-phenyl}-ethyl)-amide] | 100 to 500 nM | 20 to 100 nM |
| CCOC(=O)c1c(Cl)c2ccccc2n1-c1ccc(CNC(=O)C2(NC(=O)c3cc(OC)no3)CC2)cc1 [Example 34, 3-Chloro-1-{4-[({1-[(3-methoxy-isoxazole-5-carbonyl)-amino]-cyclopropane-carbonyl}-amino)-methyl]-phenyl}-1H-indole-2-carboxylic acid ethyl ester] | 20 to 100 nM | < 20 nM |
